The values below are quoted from earlier work in PMC3745299 (Journal of medicinal chemistry, 2013).

Read-outs that look alike come from different tables or passages of the source. A value given as a limit tells only on which side of the number the result lay.

Data set [1] concerns Cyp450. The note with it: dog.
Data set [2] deals with Mycobacterium tuberculosis.
Data set [3] has as its system Cyp450. Conditions: rat.
Data set [4] has as its system human pregnane X receptor (hPXR). The note with it: below 100 μM.

For `CO[C@H]1/C=C/O[C@@]2(C)Oc3c(C)c(O)c4c(=O)c(c5oc6cc(N7CCN(CC(C)C)CC7)cc(O)c6nc-5c4c3C2=O)NC(=O)/C(C)=C\C=C\[C@H](C)[C@H](O)[C@@H](C)[C@@H](O)[C@@H](C)[C@H](OC(C)=O)[C@@H]1C` [bxRIF2a, rifalazil], the Cyp450 induction activity result in data set [1] and in data set [3] was “dramatically reduced” each time. Besides, the MIC90 – broadly, an inhibitory concentration at the 90% level, which refers to growth in some studies and to a panel of isolates in others – in data set [2] is reported as under 4 nM. Also, the “hPXR activation in vitro” value in data set [4] is listed as “essentially no hPXR activation”.
